# Experimental data as given in US10709724B2, “Methods of treating mitochondrial dysfunction” (Ecole Polytechnique Federale de Lausanne (EPFL), priority 2011, dated 2020).
# Legend:
# [1] = molecular target: T1, GPR109A (Homo sapiens, UniProt Q8TDS4); assay type: cell-based; conditions: GPR109A-expressing Chem-4 cells
# T1 construct: host or cells: Chem-4 cells (Ready-to-Assay GPR109A Nicotinic Acid Receptor Cells)
# Experimental: GPR109A—Calcium Mobilization Assay. Ready-to-Assai™ GRP109A Nicotinic Acid Receptor Cells were used to measure calcium mobilization as specified by the manufacturer (Millipore). Calcium flux was determined using excitation at 340 and 380 nm in a fluorescence spectrophotometer (Victor X4, Perkin Elmer) in a 180 seconds time course, adding the ligand at 60 seconds. Internal validation was made using 0.1% Triton X-100 for total fluorophore release and 10 mM EGTA to chelate free calcium. Similarly, GPR109A specificity was internally validated using control cells devoid of GRP109A overexpression. Liver triglyceride measurement Liver triglycerides were measured from 20 mg of liver tissue using a variation of the Folch method, as described in Bai et al. (Bai et al., PARP-2 regulates SIRT1 expression and whole-body energy expenditure. (2011). Cell Metab 13, 450-460.
# [2] = tested on: HEK293T cells; test: Nampt, PARP activity, glycolysis and ATP in NR-treated HEK293T cells; assay type: cell-based, human
# Experimental: (§1) mRNA and mtDNA Analysis. Total RNA was prepared using TRIzol (Invitrogen) according to the manufacturer's instructions. RNA was treated with DNase, and 2 μg of RNA was used for reverse transcription (RT). cDNA was purified on QIAquick PCR cleanup columns (Qiagen, Valencia, Calif., USA). 50× diluted cDNA was used for RT-quantitative PCR (RT-VCR) VCR) reactions (Bai et al., 2007). The RT-qPCR reactions were performed using the Light-Cycler system (Roche Applied Science) and a qPCR Supermix (Qiagen) with the primers for mice summarized in Table 1 and 4, and with the primers for worms summarized on Table 7. mtDNA quantification was performed as described (Lagouge et al., 2006) with the primers indicated in Table 2 and 5.
# Immunoprecipitation, SDS-PAGE, Western Blotting. […] Reactions were developed by enhanced chemiluminescence (Amersham, Little Chalfont, UK), PGC-1α, FOXO1 and Ndufa9 acetylation levels were analyzed by immunoprecipitation from cellular or nuclear lysates of tissues with anti-PGC-1α (Millipore), anti-FOXO1 (Cell Signaling, Danvers, Mass., USA) and anti-Ndufa9 (Abcam) antibody followed by Western blot using an acetyl-lysine antibody (Cell Signaling) that was normalized to total PGC-1a/FOXO1/Ndufa9 levels (Lagouge et al., 2006; Rodgers et al., 2005). […] All blots were quantified by densitometry using ImageJ software. […]
# [3] = tested on: C57Bl/6J mice; test: Sirtuin activity and mitochondrial biogenesis in tissues after chronic NR feeding; assay type: in vivo
# Experimental: as §1
# (§2) Immunoprecipitation, SDS-PAGE, Western Blotting. Cells were lysed in lysis buffer (50 mM Tris, […], EDTA 1 mM, NP40 1%, nicotinamide 5 mM, Na-butyrate 1 in M, protease inhibitors pH7.4). Proteins were separated by SDS-PAGE and transferred onto nitrocellulose membranes. The origin of the primary and secondary antibodies used can be found as supplemental experimental procedures. Reactions were developed by enhanced chemiluminescence (Amersham, Little Chalfont, UK), PGC-1α, FOXO1 and Ndufa9 acetylation levels were analyzed by immunoprecipitation from cellular or nuclear lysates of tissues with anti-PGC-1α (Millipore), anti-FOXO1 (Cell Signaling, Danvers, Mass., USA) and anti-Ndufa9 (Abcam) antibody followed by Western blot using an acetyl-lysine antibody (Cell Signaling) that was normalized to total PGC-1a/FOXO1/Ndufa9 levels (Lagouge et al., 2006; Rodgers et al., 2005). In HEK293T cells HA-tagged PGC-1α was overexpressed and was immunoprecipitated using an anti-HA. In C2C12 myotubes, FLAG-HA tagged PGC-1α was introduced through adenoviral delivery 2 days before treatments, then IP was performed using anti-FLAG antibody and samples were processed as described. All blots were quantified by densitometry using ImageJ software. Poly(ADP-Ribose) detection was performed as previously described with slight modifications (Bai et al., PARP-1 inhibition increases mitochondrial metabolism through SIRT1 activation. Cell Metab 13, 461-468. (2011)) Briefly, PAR was detected by using a monoclonal anti-PAR antibody (Alexis, Lausanne Switzerland) by Western blotting of total protein lysates, using either 50 g of total worm protein lysates, 50 g of liver protein lysate or 200 g of muscle total protein extracts. PGC-1 acetylation was determined using PGC-1 immunoprecipitates from 2 mg of protein extracts, as described in Canto et al. (Canto et al., AMPK regulates energy expenditure by modulating NAD+ metabolism and SIRT1 activity. Nature 458, 1056 (2009)).
# Mitochondrial DNA Measurement The assay was performed as described (Lagouge et al., 2006). DNA. was extracted using the standard proteinase K digestion following phenol-chloroform extraction. Mitochondrial and genomic DNA was determined using specific primers in qPCR reactions (primers summarized in Table 2 and 5.) and was expressed as percentage of WT.
# Determination of Protein Acetylation Status PGC-1α, FOXO1 and Ndufa9 acetylation was analyzed by immunoprecipitation of PGC-1, FOXO1 and Nduf9a from nuclear lysates of tissues with anti-PGC-1α (Millipore), anti-FOXO1 (1 mg, Cell Signaling, Danvers, Mass., USA), or Ndufa9 (Abeam) antibody followed by Western blot using an acetyl-lysine antibody (Cell Signaling) that was normalized to total PGC-1α/FOXO1/Ndufa9 (Canto et al., 2009). Tribulin acetylation was assessed by Western blotting of total protein samples by acetylated tubulin-specific antibody (Sigma) that was then normalized for total tubrilin (Santa Cruz).
# [4] = tested on: AMP-activated protein kinase (AMPK); test: AMPK activity (ACC phosphorylation) in C2C12 myotubes; assay type: cell-based; conditions: 24 hrs
# Experimental: as §2, with “In C2C12 myotubes, FLAG-HA tagged PGC-1α was introduced through adenoviral delivery 2 days before treatments, then IP was performed using anti-FLAG antibody and samples were processed as described.” left out, “Poly(ADP-Ribose) detection was performed as previously described with slight modifications (Bai et al., PARP-1 inhibition increases mitochondrial metabolism through SIRT1 activation. Cell Metab 13, 461-468. (2011)) Briefly, PAR was detected by using a monoclonal anti-PAR antibody (Alexis, Lausanne Switzerland) by Western blotting of total protein lysates, using either 50 g of total worm protein lysates, 50 g of liver protein lysate or 200 g of muscle total protein extracts.” left out
# T1 sequence (Q8TDS4 whole entry): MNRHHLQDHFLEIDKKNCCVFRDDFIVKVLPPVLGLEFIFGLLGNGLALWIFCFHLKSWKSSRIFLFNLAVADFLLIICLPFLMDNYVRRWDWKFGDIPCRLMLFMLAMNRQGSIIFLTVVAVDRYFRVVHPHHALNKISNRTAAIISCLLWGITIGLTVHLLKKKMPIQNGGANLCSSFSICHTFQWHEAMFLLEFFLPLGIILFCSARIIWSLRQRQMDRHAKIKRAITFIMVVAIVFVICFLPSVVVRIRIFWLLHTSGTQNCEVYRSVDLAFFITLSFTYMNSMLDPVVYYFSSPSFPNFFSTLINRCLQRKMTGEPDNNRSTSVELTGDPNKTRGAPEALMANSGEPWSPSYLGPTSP
GPR109A activation (calcium flux) [1],AMPK activity (ACC phosphorylation levels) [4],Compound,cellular glycolytic rates or ATP levels [2],"Nampt mRNA or protein content ([2]; 0.5 mM, 24 hrs)",expression of oxidative metabolism regulators and mitochondrial genes in quadriceps muscle ([3]; HFD 16 weeks),mitochondrial DNA content in muscle ([3]; HFD 16 weeks),"mitochondrial proteins (Complex V ATP synthase subunit α, porin) in muscle, liver and BAT ([3]; HFD 16 weeks)",mitochondrial proteins in brain or WAT ([3]; HFD 16 weeks),"acetylation of SIRT1 and SIRT3 targets (FOXO1, SOD2) in skeletal muscle, liver and BAT ([3]; HFD 16 weeks, NR 400 mg/kg/day)",acetylation status of the SIRT2 target tubulin ([3]; NR 400 mg/kg/day)
did not activate GPR109A,,"NC(=O)c1ccc[n+]([C@@H]2O[C@H](CO)[C@@H](O)[C@H]2O)c1 [NR, nicotinamide riboside]",not linked to changes in cellular glycolytic rates or ATP levels,could not see any change,either an elevated expression or a strong tendency towards an increase,increased in muscle,prominent increase in mitochondrial proteins,such change was not observed in brain or WAT,prominent deacetylation,could not detect changes
,does not alter AMPK activity,CN(C)CC(=O)Nc1ccc2[nH]c(=O)c3ccccc3c2c1 [PJ34],,,,,,,,
